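Five compound concentrations were applied to cells in 96-well plates for 48 hours; endpoints were derived by simple linear interpolation of the resulting dose-response curve. TGI: concentration producing complete growth inhibition.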
Legend:
Assay in all cases: NCI-60 cell line screen, 48 h
COLO 205 colon = test system: COLO 205 colon
HCT-15 colon = test system: HCT-15 colon
MALME-3M melanoma = test system: MALME-3M melanoma
ACHN renal = test system: ACHN renal
BT-549 breast = test system: BT-549 breast
SF-268 CNS = test system: SF-268 CNS
HL-60(TB) leukemia = test system: HL-60(TB) leukemia
SW-620 colon = test system: SW-620 colon
NCI/ADR-RES ovarian = test system: NCI/ADR-RES ovarian
K-562 leukemia = test system: K-562 leukemia
NCI-H226 lung = test system: NCI-H226 lung
MDA-MB-435 = test system: MDA-MB-435
LOX IMVI melanoma = test system: LOX IMVI melanoma
OVCAR-5 ovarian = test system: OVCAR-5 ovarian
SK-MEL-28 melanoma = test system: SK-MEL-28 melanoma
SN12C renal = test system: SN12C renal
DU-145 prostate = test system: DU-145 prostate
IGROV1 ovarian = test system: IGROV1 ovarian
T-47D breast = test system: T-47D breast
HOP-92 NSCLC = test system: HOP-92 NSCLC
M14 melanoma = test system: M14 melanoma
NCI-H522 lung = test system: NCI-H522 lung
OVCAR-3 ovarian = test system: OVCAR-3 ovarian
SNB-75 CNS = test system: SNB-75 CNS
A549 NSCLC = test system: A549 NSCLC
SK-MEL-2 melanoma = test system: SK-MEL-2 melanoma
UACC-62 melanoma = test system: UACC-62 melanoma
SF-295 CNS = test system: SF-295 CNS
HT29 colon = test system: HT29 colon
OVCAR-4 ovarian = test system: OVCAR-4 ovarian
EKVX NSCLC = test system: EKVX NSCLC
HS 578T breast = test system: HS 578T breast
TK-10 renal = test system: TK-10 renal
786-0 renal = test system: 786-0 renal
HCT-116 colon = test system: HCT-116 colon
SF-539 CNS = test system: SF-539 CNS
NCI-H23 lung = test system: NCI-H23 lung
OVCAR-8 ovarian = test system: OVCAR-8 ovarian
A498 renal = test system: A498 renal
RPMI-8226 leukemia = test system: RPMI-8226 leukemia
U251 CNS = test system: U251 CNS
SNB-19 CNS = test system: SNB-19 CNS
HOP-62 NSCLC = test system: HOP-62 NSCLC
PC-3 prostate = test system: PC-3 prostate
SK-OV-3 ovarian = test system: SK-OV-3 ovarian
CAKI-1 renal = test system: CAKI-1 renal
SK-MEL-5 melanoma = test system: SK-MEL-5 melanoma
MDA-MB-231 breast = test system: MDA-MB-231 breast
SR leukemia = test system: SR leukemia
UACC-257 melanoma = test system: UACC-257 melanoma
HCC-2998 colon = test system: HCC-2998 colon
UO-31 renal = test system: UO-31 renal
MOLT-4 leukemia = test system: MOLT-4 leukemia
MCF7 breast = test system: MCF7 breast
KM12 colon = test system: KM12 colon
RXF 393 renal = test system: RXF 393 renal
MDA-N = test system: MDA-N
CCRF-CEM leukemia = test system: CCRF-CEM leukemia
NCI-H460 lung = test system: NCI-H460 lung

## CN(C)CCNc1ccc(CO)c2oc3ccc(O)cc3c(=O)c12
COLO 205 colon
  TGI: 21.6 µM
HCT-15 colon
  TGI: 29.9 µM
MALME-3M melanoma
  TGI: 26.6 µM
ACHN renal
  TGI: 44 µM
BT-549 breast
  TGI: 28.4 µM
SF-268 CNS
  TGI: 42.2 µM
HL-60(TB) leukemia
  TGI: 30.9 µM
SW-620 colon
  TGI: 61.3 µM
NCI/ADR-RES ovarian
  TGI: 74.3 µM
K-562 leukemia
  TGI: 32.4 µM
NCI-H226 lung
  TGI: 47.7 µM
MDA-MB-435
  TGI: 27.1 µM
LOX IMVI melanoma
  TGI: 27 µM
OVCAR-5 ovarian
  TGI: 38 µM
SK-MEL-28 melanoma
  TGI: 32 µM
SN12C renal
  TGI: > 66.3 µM
DU-145 prostate
  TGI: 53.9 µM
IGROV1 ovarian
  TGI: 57.2 µM
T-47D breast
  TGI: 59.4 µM
HOP-92 NSCLC
  TGI: 33.4 µM
M14 melanoma
  TGI: 29.5 µM
NCI-H522 lung
  TGI: 17.1 µM
OVCAR-3 ovarian
  TGI: 42.1 µM
SNB-75 CNS
  TGI: 47.1 µM
A549 NSCLC
  TGI: 63.9 µM
SK-MEL-2 melanoma
  TGI: 30.7 µM
UACC-62 melanoma
  TGI: 25 µM
SF-295 CNS
  TGI: 41.5 µM
HT29 colon
  TGI: 44.9 µM
OVCAR-4 ovarian
  TGI: 28.7 µM
EKVX NSCLC
  TGI: 47.5 µM
HS 578T breast
  TGI: 33.4 µM
TK-10 renal
  TGI: 69 µM
786-0 renal
  TGI: 46.1 µM
HCT-116 colon
  TGI: 52.2 µM
SF-539 CNS
  TGI: 25.1 µM
NCI-H23 lung
  TGI: 24.6 µM
OVCAR-8 ovarian
  TGI: 14.4 µM
A498 renal
  TGI: 28.3 µM
RPMI-8226 leukemia
  TGI: 51.1 µM
U251 CNS
  TGI: 45.7 µM
SNB-19 CNS
  TGI: 55.9 µM
HOP-62 NSCLC
  TGI: 27.3 µM
PC-3 prostate
  TGI: 29.3 µM
SK-OV-3 ovarian
  TGI: 37.4 µM
CAKI-1 renal
  TGI: > 100 µM
SK-MEL-5 melanoma
  TGI: 27.9 µM
MDA-MB-231 breast
  TGI: 37.7 µM
SR leukemia
  TGI: 4.36 µM
UACC-257 melanoma
  TGI: 17.4 µM
HCC-2998 colon
  TGI: 27.9 µM
UO-31 renal
  TGI: 31.3 µM
MOLT-4 leukemia
  TGI: 14.3 µM
MCF7 breast
  TGI: 58.1 µM
KM12 colon
  TGI: 40 µM
RXF 393 renal
  TGI: 28.4 µM
MDA-N
  TGI: 25.7 µM
CCRF-CEM leukemia
  TGI: 34.1 µM
NCI-H460 lung
  TGI: 17.4 µM

From PubChem BioAssay (NCI)
